# Tested on: SCLC cells
# Assay type: cell-based, human
row,Molecule,effect on proliferation / rate of growth of SCLC cells
1,CN1CCCC1c1cccnc1 (stereo not drawn) [nicotine],increase the rate of growth
2,alpha-bungarotoxin,slow down or suppress proliferation
3,alpha-cobratoxin,slow down or suppress proliferation
